From patent US20130310256A1, “HERBICIDAL COMPOSITIONS COMPRISING 4-AMINO-3-CHLORO-5-FLUORO-6-(4-CHLORO-2-FLUORO-3-METHOXYPHENYL) PYRIDINE-2-CARBOXYLIC ACID OR A DERIVATIVE THEREOF AND VLCFA AND LIPID SYNTHESIS INHIBITING HERBICIDES” (DOW AGROSCIENCES LLC, priority 2008, published 2013)

Columns and labels:
LEFCH [1] = assay: Example II: in-water applied weed control, transplanted paddy rice, greenhouse; assay type: in vivo, Leptochloa chinensis (L.) Nees (Chinese sprangletop); conditions: 19 DAA
Procedure: (§1) Weed seeds or nutlets of the desired test plant species were planted in puddled soil (mud) prepared by mixing a shredded, non-sterilized mineral soil (50.5 percent silt, 25.5 percent clay, and 24 percent sand, with a pH of about 7.6 and an organic matter content of about 2.9 percent) and water at a 1:1 volumetric ratio. The prepared mud was dispensed in 365 mL aliquots into 16-ounce (oz.) non-perforated plastic pots with a surface area of 86.59 square centimeters (cm^2) leaving a headspace of 3 centimeters (cm) in each pot. Mud was allowed to dry overnight prior to planting or transplanting. Rice seeds were planted in Sun Gro MetroMix® 306 planting mixture, which typically has a pH of 6.0 to 6.8 and an organic matter content of about 30 percent, in plastic plug trays. Seedlings at the second or third leaf stage of growth were transplanted into 840 mL of mud contained in 32-oz. non-perforated plastic pots with a surface area of 86.59 cm^2 4 days prior to herbicide application. The paddy was created by filling the headspace of the pots with 2.5 to 3 cm of water. When required to ensure good germination and healthy plants, a fungicide treatment and/or other chemical or physical treatment was applied. The plants were grown for 4-22 days in a greenhouse with an approximate 14 hr photoperiod which was maintained at about 29′C during the day and 26° C. during the night. Nutrients were added as Osmocote® (19:6:12, N:P:K+ minor nutrients) at 2 g per 16-oz. pot and 4 g per 32-oz. pot. Water was added on a regular basis to maintain the paddy flood, and supplemental lighting was provided with overhead metal halide 1000-Watt lamps as necessary. The plants were employed for testing when they reached the first through fourth true leaf stage.
(§2) Treatments consisted of the acid or esters of 4-amino-3-chloro-5-fluoro-6-(4-chloro-2-fluoro-3-methoxy-phenyl)pyridine-2-carboxylic acid (compound A) each formulated as an SC (suspension concentrate) and various herbicidal components alone and in combination. Forms of compound A were applied on an acid equivalent basis.
(§3) The herbicidal components were applied on an active ingredient basis and included very long chain fatty acid (VLCFA) synthesis-inhibiting and fatty acid/lipid synthesis-inhibiting herbicides acetochlor (technical grade material), acetochlor+dichlormid formulateded as Topnotch®, pretilachlor (technical grade material), butachlor formulated as Butachlor EC, fentrazamide formulated as Fentrazamide EC, thiobencarb formulated as Bolero® 8EC, cafenstrole formulated as Himeadow® WP or Lapost® Flowable, benfuresate formulated as Full Shot®, anilofos (technical grade material), mefenacet (technical grade material), molinate (technical grade material), and thenylchlor (technical grade material).
(§4) Treatment requirements for each compound or herbicidal component were calculated based upon the rates being tested, the concentration of active ingredient or acid equivalent in the formulation, an application volume of 2 mL per component per pot, and an application area of 86.59 cm^2 per pot.
(§5) For formulated compounds, a measured amount was placed in an individual 100 or 200 mL glass vial and was dissolved in a volume of 1.25% (v/v) Agri-Dex® crop oil concentrate to obtain application solutions.
(§6) For technical grade compounds, a weighed amount was placed in an individual 100 to 200 mL glass vial and was dissolved in a volume of acetone to obtain concentrated stock solutions. […] The concentrated stock solutions obtained were diluted with an equivalent volume of an aqueous mixture containing 2.5% (v/v) crop oil concentrate so that the final application solutions contained 1.25% (v/v) crop oil concentrate.
(§7) Applications were made by injecting with a pipetter appropriate amounts of the application solutions, individually and sequentially, into the aqueous layer of the paddy. Control plants were treated in the same manner with the solvent blank. […]

ECHCO = assay: Example I: postemergence foliar-applied weed control, greenhouse; assay type: in vivo, Echinochloa colona (L.) Link (junglerice); conditions: for Visual Weed Control (%) - 19 DAA ECHCO Obs: foliar; for Visual Weed Control Obs: 20 DAA
Source text: (§8) Seeds or nutlets of the desired test plant species were planted in a soil matrix prepared by mixing a loam or sandy loam soil (e.g., 28.6 percent silt, 18.8 percent clay, and 52.6 percent sand, with a pH of about 5.8 and an organic matter content of about 1.8 percent) and calcareous grit in an 80 to 20 ratio. The soil matrix was contained in plastic pots with a volume of 1 quart and a surface area of 83.6 square centimeters (cm^2). When required to ensure good germination and healthy plants, a fungicide treatment and/or other chemical or physical treatment was applied. The plants were grown for 8-22 days in a greenhouse with an approximate 14 hr photoperiod which was maintained at about 29° C. during the day and 26° C. during the night. Nutrients (Peters Excel® 15-5-15 5-Ca 2-Mg and iron chelate) were applied in the irrigation solution as needed and water was added on a regular basis. Supplemental lighting was provided with overhead metal halide 1000-Watt lamps as necessary. The plants were employed for testing when they reached the first through fourth true leaf stage.
(§9) Treatments consisted of the acid or esters of 4-amino-3-chloro-5-fluoro-6-(4-chloro-2-fluoro-3-methoxy-phenyl)pyridine-2-carboxylic acid (Compound A), each formulated as an SC (suspension concentrate), and various herbicidal components alone and in combination. Forms of compound A were applied on an acid equivalent basis.
(§10) Other herbicidal components were applied on an active ingredient basis and included very long chain fatty acid (VLCFA) synthesis-inhibiting and fatty acid/lipid synthesis-inhibiting herbicides acetochlor (technical grade material), acetochlor+dichlormid formulated as Topnotch®, pretilachlor (technical grade material), butachlor formulated as Butachlor EC, fentrazamide formulated as Fentrazamide EC, thiobencarb formulated as Bolero® 8EC, cafenstrole formulated as Himeadow® WP or Lapost® Flowable, benfuresate formulated as Full Shot®, dimethenamid-P formulated as Outlook®, indanofan (technical grade material), flufenacet formulated as Define® DF, mefenacet (technical grade material), S-metolachlor formulated as Dual® II Magnum, pethoxamid formulated as Successor® 600, and pyroxasulfone (technical grade material).
(§11) Treatment requirements were calculated based upon the rates being tested, the concentration of active ingredient or acid equivalent in the formulation, and a 12 mL application volume at a rate of 187 L/ha.
(§12) For treatments comprised of formulated compounds, measured amounts of compounds were placed individually in 25 mL glass vials and diluted in a volume of 1.25% (v/v) Agri-Dex® crop oil concentrated to obtain 12× stock solutions. […] Application solutions were prepared by adding an appropriate amount of each stock solution (e.g., 1 mL) and diluted to the appropriate final concentrations with the addition of 10 mL of an aqueous mixture of 1.25% (v/v) crop oil concentrate so that the final spray solutions contained 1.25+/−0.05% (v/v) crop oil concentrate.
(§13) For treatments comprised of technical compounds, weighed amounts can be placed individually in 25 mL glass vials and dissolved in a volume of 97:3 v/v acetone/DMSO to obtain 12× stock solutions. […] Application solutions can be prepared by adding an appropriate amount of each stock solution (e.g., 1 mL) and diluted to the appropriate final concentrations with the addition of 10 mL of an aqueous mixture of 1.5% (v/v) crop oil concentrate so that the final spray solutions contain 1.25% (v/v) crop oil concentrate. When technical materials are used, the concentrated stock solutions can be added to the spray solutions so that the final acetone and DMSO concentrations of the application solutions are […], respectively. […]

LEFCH [2] = assay: as above; assay type: in vivo, Leptochloa chinensis (L.) Nees (Chinese sprangletop); conditions: for Visual Weed Control (%) - 19 DAA LEFCH Obs / Visual Weed Control (%) - 22 DAA LEFCH Obs: foliar; for Visual Weed Control Obs: 20 DAA
Source text: as §8, §9, §10, §11, §12, §13

BRAPP = assay: Example I: postemergence foliar-applied weed control, direct seeded rice weeds, greenhouse; assay type: in vivo; conditions: for Visual Weed Control Obs: 20 DAA; for Visual Weed Control (%) - 22 DAA BRAPP Obs: foliar
Source text: as §8, §9, §10, §11, §12, §13

CYPRO = assay: Example II: in-water applied weed control, transplanted paddy rice, greenhouse; assay type: in vivo, Cyperus rotundus L. (purple nutsedge)
Procedure: as §1, §2, §3, §4, §5, §6, §7

IPOHE = assay: Example I: postemergence foliar-applied weed control, greenhouse; assay type: in vivo, Ipomoea hederacea Jacq. (ivyleaf morningglory); conditions: 20 DAA
Source text: as §8, §9, §10, §11, §12, §13

ECHCG [3] = assay: as above; assay type: in vivo, Echinochloa crus-galli (L.) Beauv. (barnyardgrass); conditions: for Visual Weed Control Obs: 20 DAA
Source text: as §8, §9, §10, §11, §12, §13

ECHOR = assay: Example II: in-water applied weed control, transplanted paddy rice, greenhouse; assay type: in vivo, Echinochloa oryzoides (Ard.) Fritsch (early watergrass)
Procedure: as §1, §2, §3, §4, §5, §6, §7

ECHCG [4] = assay: as above; assay type: in vivo, Echinochloa crus-galli (L.) Beauv. (barnyardgrass)
Procedure: as §1, §2, §3, §4, §5, §6, §7

CYPIR = assay: Example I: postemergence foliar-applied weed control, greenhouse; assay type: in vivo, Cyperus iria L. (rice flatsedge); conditions: foliar
Source text: as §8, §9, §10, §11, §12, §13

CCC1(CC2(c3cccc(Cl)c3)CO2)C(=O)c2ccccc2C1=O (racemic) [Indanofan, (RS)-2-[[2-(3-chlorophenyl)oxiranyl]methyl]-2-ethyl-1H-indene-1,3(2H)-dione]
Visual Weed Control LEFCH Obs (LEFCH [1]; 37.5 gai/ha): 10%
Visual Weed Control LEFCH Obs (LEFCH [1]; 75 gai/ha): 20%
Visual Weed Control LEFCH Obs (LEFCH [1]; 150 gai/ha): 95%
Visual Weed Control (%) - 19 DAA ECHCO Obs (ECHCO; 37.5 gai/ha): 0%
Visual Weed Control (%) - 19 DAA ECHCO Obs (ECHCO; 75 gai/ha): 0%
Visual Weed Control (%) - 19 DAA ECHCO Obs (ECHCO; 150 gai/ha): 35%
Visual Weed Control (%) - 19 DAA LEFCH Obs (LEFCH [2]; 37.5 gai/ha): 0%
Visual Weed Control (%) - 19 DAA LEFCH Obs (LEFCH [2]; 75 gai/ha): 0%

CCCCOCN(C(=O)CCl)c1c(CC)cccc1CC [Butachlor, N-(butoxymethyl)-2-chloro-N-(2,6-diethylphenyl)acetamide]
Visual Weed Control Obs (BRAPP; 112.5 gai/ha): 0%
Visual Weed Control Obs (BRAPP; 225 gai/ha): 0%
Visual Weed Control Obs (BRAPP; 450 gai/ha): 0%
Visual Weed Control (%) - 21 DAA CYPRO Obs (CYPRO; 225 gai/ha): 0%
Visual Weed Control (%) - 21 DAA CYPRO Obs (CYPRO; 450 gai/ha): 0%
Visual Weed Control Obs (IPOHE; 112.5 gai/ha): 20%
Visual Weed Control Obs (IPOHE; 450 gai/ha): 30%
Visual Weed Control Obs (ECHCG [3]; 112.5 gai/ha): 0%
Visual Weed Control Obs (ECHCG [3]; 225 gai/ha): 0%
Visual Weed Control Obs (ECHCG [3]; 450 gai/ha): 0%
Visual Weed Control Obs (ECHCO; 112.5 gai/ha): 0%
Visual Weed Control Obs (ECHCO; 225 gai/ha): 0%
Visual Weed Control Obs (ECHCO; 450 gai/ha): 0%
Visual Weed Control Obs (LEFCH [2]; 112.5 gai/ha): 0%
Visual Weed Control Obs (LEFCH [2]; 225 gai/ha): 0%
Visual Weed Control Obs (LEFCH [2]; 450 gai/ha): 0%
Visual Weed Control (%) - 21 DAA ECHOR Obs (ECHOR; 225 gai/ha): 0%
Visual Weed Control (%) - 21 DAA ECHOR Obs (ECHOR; 450 gai/ha): 20%
Visual Weed Control (%) - 21 DAA ECHCG Obs (ECHCG [4]; 225 gai/ha): 40%
Visual Weed Control (%) - 21 DAA ECHCG Obs (ECHCG [4]; 450 gai/ha): 20%

CN(C(=O)COc1nc2ccccc2s1)c1ccccc1 [Mefenacet, 2-(2-benzothiazolyloxy)-N-methyl-N-phenylacetamide]
Visual Weed Control (%) - 22 DAA BRAPP Obs (BRAPP; 50 gai/ha): 0%
Visual Weed Control (%) - 22 DAA BRAPP Obs (BRAPP; 100 gai/ha): 0%
Visual Weed Control (%) - 22 DAA BRAPP Obs (BRAPP; 200 gai/ha): 0%
Visual Weed Control (%) - 22 DAA CYPIR Obs (CYPIR; 100 gai/ha): 0%
Visual Weed Control (%) - 22 DAA CYPIR Obs (CYPIR; 200 gai/ha): 20%
Visual Weed Control (%) - 22 DAA LEFCH Obs (LEFCH [2]; 50 gai/ha): 10%
Visual Weed Control (%) - 22 DAA LEFCH Obs (LEFCH [2]; 100 gai/ha): 0%
pest or weed control at 300 g/ha (ECHOR; Echinochloa oryzoides, 504 h, 300 gai/ha, 21 DAA, read-out: Visual Weed Control ECHOR Obs): 80%
pest or weed control at 600 g/ha (ECHOR; Echinochloa oryzoides, 504 h, 600 gai/ha, 21 DAA, read-out: Visual Weed Control ECHOR Obs): 100%
pest or weed control at 1200 g/ha (ECHOR; Echinochloa oryzoides, 504 h, 1200 gai/ha, 21 DAA, read-out: Visual Weed Control ECHOR Obs): 100%

CCSC(=O)N1CCCCCC1 [Molinate, S-ethyl hexahydro-1H-azepine-1-carbothioate]
pest or weed control at 1400 g/ha (ECHOR; Echinochloa oryzoides, 504 h, 1400 gai/ha, 21 DAA, read-out: Visual Weed Control ECHOR Obs): 55%
pest or weed control at 2800 g/ha (ECHOR; Echinochloa oryzoides, 504 h, 2800 gai/ha, 21 DAA, read-out: Visual Weed Control ECHOR Obs): 85%

Cn1nc(C(F)(F)F)c(CS(=O)(=O)C2=NOC(C)(C)C2)c1OC(F)F [Pyroxasulfone, 3-[[[5-(difluoromethoxy)-1-methyl-3-(trifluoromethyl)-1H-pyrazol-4-yl]methyl]sulfonyl]-4,5-dihydro-5,5-dimethylisoxazole]
Visual Weed Control (%) - 22 DAA BRAPP Obs (BRAPP; 29.5 gai/ha): 0%
Visual Weed Control (%) - 22 DAA BRAPP Obs (BRAPP; 59 gai/ha): 0%
Visual Weed Control (%) - 22 DAA BRAPP Obs (BRAPP; 118 gai/ha): 20%
Visual Weed Control (%) - 22 DAA ECHCG Obs (ECHCG [3]; 59 gai/ha, foliar): 70%

COc1ccsc1CN(C(=O)CCl)c1c(C)cccc1C [Thenylchlor, 2-chloro-N-(2,6-dimethylphenyl)-N-[(3-methoxy-2-thienyl)methyl]acetamide]
Visual Weed Control LEFCH Obs (LEFCH [1]; 135 gai/ha): 15%
Visual Weed Control LEFCH Obs (LEFCH [1]; 270 gai/ha): 25%
pest or weed control at 135 g/ha (ECHOR; Echinochloa oryzoides, 456 h, 135 gai/ha, 19 DAA, read-out: Visual Weed Control ECHOR Obs): 35%
pest or weed control at 270 g/ha (ECHOR; Echinochloa oryzoides, 456 h, 270 gai/ha, 19 DAA, read-out: Visual Weed Control ECHOR Obs): 90%
